Read-outs that look alike come from different tables or passages of the source.

For experiment [1], the system named is HeLa cancer cells. Nature of the experiment: Morphological study under normal inverted microscope, HeLa. Conditions: treated at IC50 value, 24, 48 and 72 hours. The format is cell-based, human. How it is done:
(§1) Treated cancer cells of HeLa and Caov-3 in 96-well plates were observed under normal inverted microscope following 24, 48 and 72 hours of incubation. Apoptotic features of treated cells were examined and compared concurrently to untreated cells. The cells were observed under inverted microscope at magnification 20×10.

A further experiment concerns Caov-3 cancer cells. Description: Morphological study under normal inverted microscope, Caov-3. The note with it: Caov-3, treated at IC50 value, 24, 48 and 72 hours. The format is cell-based, human. How it is done: as §1
Experiment [2] relates to HeLa cancer cells. Nature of the experiment: Confocal microscopy with AO/PI stain, HeLa. The format is cell-based, human. Conditions: 48 hours, laser scanning confocal microscopy. On the procedure: The plates were removed from the incubator after 24 and 48 hours of incubation period. The medium containing cells was transferred into labeled Eppendorf tubes (of each treated samples) placed in ice. The remaining cells in the wells were trypsinised until all cells were detached from the surfaces of each well. The medium containing cells in the Eppendorf tube was then transferred into the well of the tissue culture plate (of similar sample) to neutralise the trypsin. The medium in the wells was later transferred back into the Eppendorf tube (of similar sample) and centrifuged at 3000 rpm for 5 minutes, 4° C. Supernatant was discarded and 1 mL of 70% of cold alcohol was added. The pellet was re-suspended and placed in ice for 15 minutes for fixation. The samples were then centrifuged again at 3000 rpm for 5 minutes, 4° C. The supernatants containing the alcohol were discarded. The pellet was then re-suspended in 1 mL of phosphate buffer saline (PBS) and placed in ice for 10 minutes. The samples were centrifuged again, re-suspended in 1 mL of PBS and placed in ice for 10 minutes. This procedure was repeated again before discarding the supernatant.
The pellet containing cells was re-suspended with 15 μl of 10 μg/mL AO/PI mixture. Approximately 10 μl of the cell suspension was placed on a glass slide, and anti-fading agents were added onto the cells. […]

Experiment [3] concerns ovarian carcinoma cells (Caov-3 cells). Nature of the experiment: TUNEL assay apoptosis, Caov-3. The format is cell-based, human. Conditions: Caov-3, IC50 values, 24 and 48 hours, P<0.05 or P<0.01 vs control. The text has this:
Apoptotic cells were quantified manually after TUNEL Assay. Data shown are mean±SD from duplicate samples. A single dagger denotes a P of <0.05 when compared with control; a double dagger denotes a P of <0.01 when compared with control as performed by One-Way ANOVA;

Experiment [4] deals with cervical cancer cells (HeLa cells). Description: TUNEL assay apoptosis, HeLa. The format is cell-based, human. Conditions: IC50 values, 24 and 48 hours, P<0.01 vs control. The text has this: Apoptosis was quantified manually after TUNEL Assay. Data shown are mean±SD from duplicate samples. A double dagger denotes a P of <0.01 when compared with control as performed by One-Way ANOVA;

Experiment [5] relates to induced cervical cancer in female balb/c mice. Nature of the experiment: DES-induced cervical cancer in female balb/c mice, cervical histology (H&E). The format is in vivo. Conditions: intra peritoneal, 4 dosages on alternate days, normal saline group CIN III. On the procedure: 1 male mouse was cohabitate with 3 female mice for 48 hours prior to experiment to stimulate the ovulation of the female mice. After 48 hours, 1 male mouse was cohabitate with 1 female mouse. The next morning, the female mice were checked for a vaginal plug. The detection of vaginal plug at the vagina of the female mice were considered as the first day of pregnancy and gestation day (G=0). Once the female mouse was pregnant the corresponding male mouse was separated from the cage. Only one pregnant female mouse was placed in each cage to reduce the stress among the mice and also to reduce the chances of cannibalization of offspring by the mothers. The pregnant mice were given subcutaneous injection of 67 μg/kg body weight diethylstilbestrol (DES) dissolved in sesame oil (refer to appendix for DES preparation) from gestation day (13 to 18). Since the reproductive tract is developing during this time, so giving the DES injection too early may cause stillbirth. The mice gave birth approximately at gestation day (19 to 22). The offspring were weaned at 22 days of age. 1 female offspring was subjected for the confirmation of cervical dysplasia at 41 days of age. The other offspring were subjected for the treatment with cisplatin, zerumbone and normal saline.
All female offspring exposed to DES in uteri were pooled together and were divided into 4 groups where each group consists of 3 mice. […]

Another experiment has as its system serum IL-6. Description: Serum IL-6 ELISA in mice with induced cervical cancer. The note with it: for Serum IL-6 levels vs normal saline treated mice: mice with induced cervical cancer, P<0.01 One-Way ANOVA. The format is in vivo. How it is done:
All female offspring exposed to DES in uteri were pooled together and were divided into 4 groups where each group consists of 3 mice. The 5th group consists of 3 mice which was non-exposed to DES. The mice were given treatment starting from 46 days of age to 52 days of age. The treatment was given every alternate day (day 46, 48, 50, 52) which consist of 4 dosages. The treatment was given through intra peritoneal injection. The group 1 mice were treated with 0.9% of Normal Saline and this group acts as a positive control group. The group 2 mice were given 8 mg/kg of Zerumbone while the group 3 mice were given 16 mg/kg of Zerumbone. […] Finally no treatment was given to the mice in group 5 as they act as a negative control (normal mice) for the studies. Following treatment, all the mice were sacrificed at 54 days of age. The blood sample was collected through heart punctured method into a plain tube and was centrifuged at 3000 rpm for 15 minutes. The supernatant (serum) was collected into an eppendorf tube and was immediately stored in ice (0° C.—temporary storage). Once serum from all the samples was collected, the serum was stored at −20° C. Then the mice were dissected. The reproductive organ of the mice were collected and washed with 0.9% normal saline. The washed organ was soaked in 10% formalin and stored at room temperature.
The IL-6 serum levels in normal mice were used as negative control.

Experiment [6] relates to human cervical cancer cells, HeLa. Description: Micro Tetrazolium (MTT) cytotoxicity assay on HeLa.
Procedure: HeLa and Caov-3 cell lines were maintained in RPMI 1640 and DMEM high glucose respectively, supplemented with 10% FCS, 1% penicillin and 1% streptomycin. Cells were allowed to proliferate as monolayer cultures in 25 cm^2 and 75 cm^2 tissues culture flasks, in a humidified atmosphere containing 5% CO2 at 37° C.
A haemacytometer was used to determine the concentration of cells in the flask. Confluent cells were trypsinised in order to detach cells from surface of the flask. 10 mL of fresh medium was added into the flask and the cells were suspended thoroughly. 10 μl of medium from the flask was then transferred into a haemacytometer with cover slip. The counting was done under an inverted microscope and facilitated by manual counter usage. The cell density (for an example 1×10^5 cells/mL) was calculated. Using a multi-channel pipette, 100 μl of cell culture solution was transferred into each well of a 96-well microtiter plate. For a 6 well microtiter plate, 2 ml of the cell culture solution was pipetted instead. The plate was incubated overnight at 37° C. in 5% CO2.
The concentrations of zerumbone in each experiment varied according to the optimization of the experiment conducted. The controls or untreated cells received only medium without any treatment of either compounds. Treated cells were then incubated at 37° C. in 5% CO2.
This assay is based on the metabolic reduction of soluble MTT by mitochondrial enzyme activity of viable cancer cells, into an insoluble coloured formazan product, which can be measured spectrophotometrically after dissolution in dimethyl sulfoxide (DMSO) (Carmichale et al., 1987). The MTT assay was conducted according to the methods of Kumi-Diaka et at (1998) with minor modifications. The concentration of MTT solution used was 5 mg/mL. The MTT solution was prepared by dissolving 250 mg of MTT powder in 50 mL of phosphate buffer saline (PBS). A 0.2 micron syringe filter was used to filter the dissolved MTT. The filtered MTT solution was transferred into a sterile 50 mL centrifuge tube and covered with aluminum foil. This solution was stored in 4° C. and is ready to be used. The MTT assay was carried out as follows:
96-well microtiter plates containing cell culture solution were removed from the incubator after 72 hours incubation. 20 μl of 5 mg/mL MTT solution was added into each well including control wells. The plates were then wrapped with aluminium foil and incubated further for 4 hours at 37° C. in 5% CO2. After incubation, excess MTT reagent was aspirated and 100 μl of DMSO was added to dissolve the remaining purple colour formazan crystals. The plates were gently mixed on a plate shaker for approximately 4 minutes. The absorbance of the formazan solution was determined at 450 nm using a microplate reader.
A further experiment deals with HeLa cells. Description: Cell cycle study by flow cytometry, HeLa. The format is cell-based, human. The note with it: 24 hours, zerumbone 0 to 45 μM. How it is done:
Cells were plated in 25 cm^2 tissue culture flasks at concentrations of 0.5×10^5 cells/mL. After an overnight incubation, the cells were cultured in the presence of zerumbone at concentrations as indicated above for 24 hours. Cells were harvested using trypsin-EDTA before centrifuging at 3000 rpm for 5 minutes. The cells pellet was then re-suspended in 2 mL of phosphate buffer saline (PBS). The re-suspended cells were centrifuged at 3000 rpm for 5 minutes and the resulting cells pellet was re-suspended again in 1 mL of cold PBS. The cells were fixed by the addition of 4 mL of cold absolute ethanol (kept in −20° C. prior to use). The fixed cells were stored in −20° C. overnight before resuming the staining procedure.

A further experiment has as its system Coa3 cancer cells. Description: Cell cycle study by flow cytometry, Caov-3. The format is cell-based, human. The note with it: Coa3 (Caov-3) cancer cells.

Take `N.N.[Cl][Pt][Cl]` [cisplatin, reference compound]: the “Morphological changes / cell growth vs untreated control” value in the experiment with HeLa cancer cells [1] and with Caov-3 cancer cells was “Prominent growth retardation” throughout. In the experiment with HeLa cancer cells [2], the “Morphological changes after AO/PI staining” value is “blebbing of the cell membrane, nuclear condensation with margination and nuclear damage”. Also, in [3], the “Apoptosis, apoptotic cells quantified after TUNEL Assay” value is on record as “induced apoptosis”. The “Apoptosis quantified after TUNEL Assay” value in experiment [4] is “induced apoptosis”. Besides, in experiment [5] (10 mg/kg cisplatin), the “Cervical tissue dysplasia grade (CIN)” value is on record as “mild dysplastic changes (CIN I)”. Moreover, the “Serum IL-6 levels vs normal mice (negative control)” value with serum IL-6 (10 mg/kg cisplatin) is recorded as “almost near to the serum level of normal mice”. The “Serum IL-6 levels vs normal saline treated mice” value with serum IL-6 is listed as “lower”. For the same compound, in experiment [6] (MTT, 72-hours post-treatment), the “IC50 value, growth proliferation of HeLa” value is 1.6 µg/mL. Also, in [6] (read-out: IC50 value (±S.E.M), growth proliferation of HeLa, MTT, 72-hours post-treatment), the IC50 was found to be 7.5 µM.
Regarding `C/C1=C\CC(C)(C)/C=C/C(=O)/C(C)=C/CC1` [zerumbone], the “Morphological changes / cell growth vs untreated control” value in the experiment on HeLa cancer cells [1] and in the experiment with Caov-3 cancer cells was “Prominent growth retardation” throughout. Moreover, the “Morphological changes after AO/PI staining” value in the experiment with HeLa cancer cells [2] is “blebbing of the cell membrane, nuclear condensation with margination and nuclear damage”. Also, the “Cell cycle progression (G2/M, G1, S phase)” value in the experiment with HeLa cells was “increase in the number of HeLa cancer cells and Coa3 cancer cells in the G2/M phase and a decrease in the G1 phase and S phase”; in the experiment with Coa3 cancer cells it was “increase in the number of HeLa cancer cells and Coa3 cancer cells in the G2/M phase and a decrease in the G1 phase and S phase”. Besides, in experiment [3], the “Apoptosis, apoptotic cells quantified after TUNEL Assay” value was “induced apoptosis”. Moreover, the “Apoptosis quantified after TUNEL Assay” value in experiment [4] is given as “induced apoptosis”. Besides, the “Cervical tissue dysplasia grade (CIN)” value in experiment [5] (16 mg/kg zerumbone) is given as “mild dysplastic changes (CIN I)”. Further, in the experiment with serum IL-6 (16 mg/kg zerumbone), the “Serum IL-6 levels vs normal mice (negative control)” value is “almost near to the serum level of normal mice”. Further, the “Serum IL-6 levels vs normal saline treated mice” value in the experiment with serum IL-6 was “lower”. Further, the IC50 in experiment [6] (Homo sapiens, 72 h, read-out: IC50 value (±S.E.M), growth proliferation of HeLa) is 11.3 µM; in experiment [6] (Homo sapiens, 72 h, read-out: IC50 value, growth proliferation of HeLa), 2.5 µg/mL.

These data come from patent US20090239953A1, “USE OF AN ANTI-CANCER COMPOUND” (priority 2006, published 2009).
